Laboratory results published in US8173131B2, “Compositions and methods for modulating RSV infection and immunity” (PerkinElmer Health Sciences, Inc., priority 2000, dated 2012).
Read-outs that look alike come from different tables or passages of the source.

Experiments:
[1] = system: G glycoprotein binding to 293-CX3CR1 cells; design: species or system human; conditions: for percent staining of G glycoprotein on CX3CR1-293 cells in the presence of peptide: 10 nM G glycoprotein, 84% without peptide, FIG. 1
Protocol: All binding studies were done on ice and either G glycoprotein or human Fkn (R&D Diagnostics, Minneapolis, Minn.) were diluted between 1 nM-100 nM in PBS (GIBCO) containing 1% bovine serum albumin (Sigma) and incubated with the 293-CX3CR1 cells or 293 control cells for 30 min at 4° C. […] Without washing, 100 pM of either Fkn or G glycoprotein was added and incubated for 30 min at 4° C. The cells were washed, blocked with FcγRIII blocking antibody (HB197) for 30 min on ice, washed and stained as appropriate with either an anti-G glycoprotein monoclonal antibody cocktail (132-5B, 132-5G, 130-2G, 232-IF) or a biotinylated anti-G glycoprotein monoclonal antibody cocktail (130-2G, 131-2G) or anti-Fkn monoclonal antibody (51637.11; R&D Diagnostics). Concentrations of 1 μg of anti-G glycoprotein monoclonal antibody (131-2G)^34, rabbit anti-CX3CR1 sera^33, and anti-CX3CR1 monoclonal antibody containing 10 μg/ml heparin were used in all experiments. […] Staining was detected with absorbed FITC-goat anti-mouse (H & L chain) monoclonal antibody (PharMingen, San Diego, Calif.) or streptavidin-PE (PharMingen) using flow cytometry (FACScan, Becton-Dickinson, Mountain View, Calif.). A 76 amino acid ^125I-Fkn polypeptide comprising the […] (NEN, Boston, Mass.) was used in radioligand studies^33. As a control, the void volume following purified G glycoprotein passaged over an anti-G glycoprotein antibody (130-2G) affinity column was examined by flow cytometry for binding to either 293 or 293-CX3CR1 cells.
(§1) For peptide inhibition studies, a series of G glycoprotein peptides were identified in the amino acid sequence of the A2 strain of RSV (GENBANK, attachment protein locus 1912305, Table 4). The peptides were synthesized using a simultaneous, multiple solid-phase peptide synthesis method on a peptide synthesizer (Perkin-Elmer Applied Biosystems, Berkeley, Calif.), and tested for homogeneity by reverse-phase liquid chromatography and capillary electrophoresis (www.biotech.cdc.gov/protein/methods). Inhibition assays were performed as described for the binding studies above.
(§2) To determine if G glycoprotein bound 293-CX3CR1 cells via CX3CR1, the ability of four reagents (anti-CX3CR1 rabbit antiserum, anti-CX3CR1 monoclonal antibody (2A9-1), Fkn and a 76 amino acid 125-I-Fkn polypeptide containing the CX3C domain) that bind to CX3CR1 to block G glycoprotein binding to 293-CX3CR1 cells was examined. In addition, to determine if binding of G glycoprotein to 293-CX3CR1 cells was dependent upon the CX3C motif, G glycoprotein peptides with a single residue insertion (Δ+1) or deletion (Δ−1) in the CX3C motif and also peptides that lacked or included the CX3C motif (Table 4) were generated. This panel of peptides was analyzed for their ability to block G glycoprotein or Fkn binding to 293-CX3CR1 cells.
(§3) Inhibition of Fkn and G glycoprotein binding to 293-CX3CR1 cells by treatment with monoclonal antibodies to G glycoprotein or CX3CR1, or treatment with G glycoprotein, Fkn, or G glycoprotein peptides in the presence or absence of heparin as described in Methods. […] The concentration of G glycoprotein was estimated using a molecular weight of 90 kD.

RSV = RSV plaque reduction assay on Vero cells (Example 1); assay type: cell-based, RSV/A2
Protocol: Dilutions of Fkn (R&D systems), SDF-1 α (R&D systems), G glycoprotein, heparin (Sigma), G glycoprotein peptides and anti-CX3CR1 antibody were made in serum-free Dulbecco's Modified Eagle's Media (DMEM; GIBCO) containing 1% BSA (Sigma) and preincubated with the Vero cells for 1 h at 37° C. 50 μg of anti-CX3CR1 antibody or heat-inactivated (56° C., 30 min) normal rabbit sera (control) were used in all experiments. […] Dilutions of RSV were made in serum-free DMEM (GIBCO) and added to pretreated Vero cells for 2 h at 37° C. Following virus infection, DMEM (GIBCO) containing 10% FBS (Hyclone, Logan, Utah) was added to the wells. Plaques were enumerated using immunostaining for F and G glycoproteins using biotinylated monoclonal antibodies 131-2A (anti-F glycoprotein) and 130-2G (anti-G glycoprotein) as described^45.
RSV plaque reduction following treatment with G glycoprotein, Fkn, G glycoprotein peptides, anti-CX3CR1 antibody, SDF-1-α and/or heparin as described in Methods. Percent inhibition was determined from the mean plaque forming units (pfu) of treated Vero cells over saline-treated Vero cells using a dilution of RSV that would produce 40-80 pfu. p-values were determined using unpaired two-tailed analysis where p<0.05 is significant. The concentration of G glycoprotein was estimated using a molecular weight of 90 kD.

[2] = biological target: T1, Fkn binding to 293-CX3CR1 cells (Homo sapiens, UniProt P49238); conditions: no heparin
T1 construct: host or cells: HEK 293 cells stably transfected with CX3CR1
Protocol: All binding studies were done on ice and either G glycoprotein or human Fkn (R&D Diagnostics, Minneapolis, Minn.) were diluted between 1 nM-100 nM in PBS (GIBCO) containing 1% bovine serum albumin (Sigma) and incubated with the 293-CX3CR1 cells or 293 control cells for 30 min at 4° C. […] For inhibition studies, 100 pM-1 μM human Fkn or G glycoprotein was preincubated with the cells for 30 min at 4° C. Without washing, 100 pM of either Fkn or G glycoprotein was added and incubated for 30 min at 4° C. The cells were washed, blocked with FcγRIII blocking antibody (HB197) for 30 min on ice, washed and stained as appropriate with either an anti-G glycoprotein monoclonal antibody cocktail (132-5B, 132-5G, 130-2G, 232-IF) or a biotinylated anti-G glycoprotein monoclonal antibody cocktail (130-2G, 131-2G) or anti-Fkn monoclonal antibody (51637.11; R&D Diagnostics). Concentrations of 1 μg of anti-G glycoprotein monoclonal antibody (131-2G)^34, rabbit anti-CX3CR1 sera^33, and anti-CX3CR1 monoclonal antibody containing 10 μg/ml heparin were used in all experiments. […] Staining was detected with absorbed FITC-goat anti-mouse (H & L chain) monoclonal antibody (PharMingen, San Diego, Calif.) or streptavidin-PE (PharMingen) using flow cytometry (FACScan, Becton-Dickinson, Mountain View, Calif.). A 76 amino acid ^125I-Fkn polypeptide comprising the […] (NEN, Boston, Mass.) was used in radioligand studies^33. As a control, the void volume following purified G glycoprotein passaged over an anti-G glycoprotein antibody (130-2G) affinity column was examined by flow cytometry for binding to either 293 or 293-CX3CR1 cells.
as §1, §2, §3

T1 sequence (P49238 whole entry): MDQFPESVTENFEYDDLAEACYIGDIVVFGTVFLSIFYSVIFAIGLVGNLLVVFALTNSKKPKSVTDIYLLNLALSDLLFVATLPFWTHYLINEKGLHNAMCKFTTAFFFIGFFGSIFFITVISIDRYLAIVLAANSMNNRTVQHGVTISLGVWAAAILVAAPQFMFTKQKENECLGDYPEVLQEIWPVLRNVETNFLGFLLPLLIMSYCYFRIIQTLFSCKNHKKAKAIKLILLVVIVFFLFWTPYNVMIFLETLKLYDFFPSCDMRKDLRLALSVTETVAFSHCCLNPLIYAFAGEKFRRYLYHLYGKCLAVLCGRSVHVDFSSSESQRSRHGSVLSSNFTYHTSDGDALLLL

NKKPGKKTTTKP [RT34]
Range of Inhibition (%) of G glycoprotein binding ([1]; inhibitor 1 μM, no heparin): 4-18% | plaque inhibition (%) (RSV; 1 μM): 6% | Range of Inhibition (%) of Fkn binding ([2]; inhibitor 1 μM): 6-14%

TCWACKRIPNK (TCWAIACKRIPNK) [Δ − 1]
percent staining of G glycoprotein on CX3CR1-293 cells in the presence of peptide [1]: 73% | Range of Inhibition (%) of G glycoprotein binding ([1]; inhibitor 1 μM, no heparin): 8-12% | plaque inhibition (%) (RSV; 1 μM): 0% | Range of Inhibition (%) of Fkn binding ([2]; inhibitor 1 μM): 0-4%

VPCSICSNNPTC [RT32]
Range of Inhibition (%) of G glycoprotein binding ([1]; inhibitor 1 μM, no heparin): 8-14% | plaque inhibition (%) (RSV; 1 μM): 2% | Range of Inhibition (%) of Fkn binding ([2]; inhibitor 1 μM): 6-12%

TCWAIACKRIPNK [Δ + 1]
percent staining of G glycoprotein on CX3CR1-293 cells in the presence of peptide [1]: 65% | Range of Inhibition (%) of G glycoprotein binding ([1]; inhibitor 1 μM, no heparin): 16-22% | plaque inhibition (%) (RSV; 1 μM): 30% | Range of Inhibition (%) of Fkn binding ([2]; inhibitor 1 μM): 0-8%

Fkn: CX3C chemokine fractalkine (R&D), ligand of CX3CR1 [reference compound]
Range of Inhibition (%) of G glycoprotein binding ([1]; heparin 5 μg/ml + Fractalkine 10 nM): 85-98% | Range of Inhibition (%) of G glycoprotein binding ([1]; inhibitor 100 pM, no heparin): 2-5% | Range of Inhibition (%) of G glycoprotein binding ([1]; inhibitor 10 nM, no heparin): 8-15% | Range of Inhibition (%) of G glycoprotein binding ([1]; inhibitor 1 μM, no heparin): 20-34% | plaque inhibition (%) (RSV; 100 pM): 0% | plaque inhibition (%) (RSV; 1 nM): 31% | plaque inhibition (%) (RSV; 10 nM): 80% | plaque inhibition (%) (RSV; heparin 5 μg/ml + Fkn 10 nM): 97%

TCWAICKRIPNK [RT33]
Range of Inhibition (%) of G glycoprotein binding ([1]; heparin 5 μg/ml + peptide 1 μM): 85-94% | Range of Inhibition (%) of G glycoprotein binding ([1]; inhibitor 1 μM, no heparin): 35-42% | plaque inhibition (%) (RSV; 1 μM): 71% | plaque reduction by peptide alone (RSV; concentration not stated): 16% | plaque inhibition (%) (RSV; heparin 5 μg/ml + peptide 1 μM): 92% | Range of Inhibition (%) of Fkn binding ([2]; inhibitor 1 μM): 18-27%

B1: G glycoprotein: purified G glycoprotein isolated from RSV/A2-infected Vero cells (protein)
chain: MSKNKDQRTAKTLERTWDTLNHLLFISSCLYKLNLKSVAQITLSILAMIISTSLIIAAIIFIASANHKVTPTTAIIQDATSQIKNTTPTYLTQNPQLGISPSNPSEITSQITTILASTTPGVKSTLQSTTVKTKNTTTTQTQPSKPTTKQRQNKPPSKPNNDFHFEVFNFVPCSICSNNPTCWAICKRIPNKKPGKKTTTKPTKKPTLKTTKKDPKPQTTKSKEVPTTKPTEEPTINTTKTNIITTLLTSNTTGNPELTSQMETFHSTSSEGNPSPSQVSTTSEYPSQPSSPPNTPRQ
plaque inhibition (%) (RSV; 1 nM): 0% | plaque inhibition (%) (RSV; 10 nM): 49% | plaque inhibition (%) (RSV; 100 nM): 61% | plaque inhibition (%) (RSV; heparin 5 μg/ml + G glycoprotein 100 nM): 98% | Range of Inhibition (%) of Fkn binding ([2]; inhibitor 100 pM): 5-8% | Range of Inhibition (%) of Fkn binding ([2]; inhibitor 10 nM): 32-38% | Range of Inhibition (%) of Fkn binding ([2]; inhibitor 1 μM): 50-58%
